Like-named read-outs stand apart in the source and are kept apart here.
Tests used:
[1] = target: human serum albumin (HSA) (Homo sapiens, UniProt P02768); details: presence of HSA, 20 MHz
[2] = Relaxivity r1 in water at 20 MHz; type: physicochemical; details: absence of HSA
[3] = Decomplexation of Mn(II) complexes: transmetallation with Cu2+ ions followed by spectrophotometry; type: physicochemical; details: pH 7.4, 25 °C, read-out: t½ (half-life of decomplexation) (converted)
Experimental: These studies were performed by following the transmetallation reaction between the Mn^2+ based complexes and Cu^2+ ions by spectrophotometry as reported in […]. Inorganic Chemistry (2012), 51, 10065-7.

[4] = calculated using rate constants

Sequence of human serum albumin (HSA) (P02768 25-609): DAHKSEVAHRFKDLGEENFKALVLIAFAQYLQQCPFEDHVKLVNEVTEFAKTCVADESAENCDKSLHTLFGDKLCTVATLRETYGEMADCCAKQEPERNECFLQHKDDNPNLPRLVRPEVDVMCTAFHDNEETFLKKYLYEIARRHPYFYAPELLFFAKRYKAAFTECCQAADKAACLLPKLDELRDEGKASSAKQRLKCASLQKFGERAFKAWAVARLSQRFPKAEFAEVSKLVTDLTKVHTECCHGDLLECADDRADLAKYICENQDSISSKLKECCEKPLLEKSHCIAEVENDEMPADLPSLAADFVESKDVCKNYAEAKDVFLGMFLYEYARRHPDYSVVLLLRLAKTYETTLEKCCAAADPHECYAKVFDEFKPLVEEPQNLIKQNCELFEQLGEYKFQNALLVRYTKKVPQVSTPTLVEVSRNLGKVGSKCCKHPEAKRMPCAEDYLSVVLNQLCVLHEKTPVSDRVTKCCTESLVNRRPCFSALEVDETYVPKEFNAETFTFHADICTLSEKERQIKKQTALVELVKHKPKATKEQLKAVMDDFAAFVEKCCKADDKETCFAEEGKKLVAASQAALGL

| Structure (SMILES) | r1 HSA (relaxivity) ([1]; 25 °C) [mM⁻¹ s⁻¹] | r1 HSA (relaxivity) ([1]; 37 °C) [mM⁻¹ s⁻¹] | r1 (relaxivity) ([2]; 25 °C) [mM⁻¹ s⁻¹] | r1 (relaxivity) ([2]; 37 °C) [mM⁻¹ s⁻¹] | half-life [3, 4] [h] | half-life ([3]; footnote: half-life in seconds) [h] |
| --- | --- | --- | --- | --- | --- | --- |
| O=C(O)CN(CC(=O)N1CCC(C(=O)O)CC1)C1CCCCC1N(CC(=O)O)CC(=O)N1CCC(C(=O)O)CC1 (stereo not drawn) | 5.98 | 4.65 | 4.97 | 3.75 | – | – |
| O=C(O)CN(CC(=O)N1CCC(Cc2ccccc2)CC1)C1CCCCC1N(CC(=O)O)CC(=O)N1CCC(Cc2ccccc2)CC1 (stereo not drawn) | 19.44 | 18.16 | 5.56 | 4.17 | – | – |
| O=C(O)CN(CC(=O)N1CCOCC1)C1CCCCC1N(CC(=O)O)CC(=O)N1CCOCC1 (stereo not drawn) | 7.64 | 6.57 | 3.77 | 2.95 | – | – |
| O=C(O)CN(CC(=O)N1CCCCC1)C1CCCCC1N(CC(=O)O)CC(=O)N1CCCCC1 (stereo not drawn) [drawing 20] | 5.63 | 4.56 | 4.43 | 3.49 | – | – |
| O=C(O)CN(CC(=O)NC(CO)CO)C1CCCCC1N(CC(=O)O)CC(=O)NC(CO)CO (stereo not drawn) [drawing 24] | 6.01 | 4.44 | 5.17 | 3.94 | – | – |
| CN(C)C(=O)CN(CC(=O)O)C1CCCCC1N(CC(=O)O)CC(=O)N(C)C (stereo not drawn) [drawing 25] | 13.10 | 9.94 | 4.37 | 3.43 | – | – |
| CCCCNC(=O)CN(CC(=O)O)C1CCCCC1N(CC(=O)O)CC(=O)NCCCC (stereo not drawn) [drawing 26] | 6.55 | 5.37 | 4.64 | 3.62 | – | – |
| O=C(O)CN(CC(=O)N1CCCCC1)c1ccccc1N(CC(=O)O)CC(=O)N1CCCCC1 [drawing 27] | 9.09 | 6.78 | 4.60 | 3.50 | – | – |
| O=C(O)CN(CC(=O)N1CCC(Cc2ccccc2)CC1)c1ccccc1N(CC(=O)O)CC(=O)N1CCC(Cc2ccccc2)CC1 [drawing 28] | 28.20 | 23.84 | 5.29 | 4.04 | – | – |
| O=C(O)CN(CC(=O)N1CCCCC1)C1CCCCC1N(CC(=O)O)CC(=O)N1CCCCC1 (stereo not drawn) [drawing 29] | – | – | – | – | 285 | – |
| O=C(O)CN(CC(=O)NC(CO)CO)C1CCCCC1N(CC(=O)O)CC(=O)NC(CO)CO (stereo not drawn) [drawing 37] | – | – | – | – | 166 | – |
| CN(C)C(=O)CN(CC(=O)O)C1CCCCC1N(CC(=O)O)CC(=O)N(C)C (stereo not drawn) [drawing 38] | – | – | – | – | 131 | – |
| CCCCNC(=O)CN(CC(=O)O)C1CCCCC1N(CC(=O)O)CC(=O)NCCCC (stereo not drawn) [drawing 39] | – | – | – | – | 57 | – |
| O=C(O)CN(CC(=O)N1CCCCC1)c1ccccc1N(CC(=O)O)CC(=O)N1CCCCC1 [drawing 40] | – | – | – | – | – | 0.0231 |
| O=C(O)CN(CC(=O)N1CCC(Cc2ccccc2)CC1)c1ccccc1N(CC(=O)O)CC(=O)N1CCC(Cc2ccccc2)CC1 [drawing 41] | – | – | – | – | – | 0.0167 |

— patent US10265422B2, “Ethylenediaminetetraacetic acid bis(amide) derivatives and their respective complexes with Mn(II) ion for use as MRI contrast agent” (BRACCO IMAGING S.P.A., priority 2015, dated 2019)
